Test results as given in paper PMC12897533, “Discovery of bis-thiourea derivatives as potent tyrosinase inhibitors: combined experimental and computational study” (Journal of Enzyme Inhibition and Medicinal Chemistry, 2025).
Where two headings read alike, the source gives them in different places.

Legend:
[1] = cited from earlier work
[2] = target: mushroom tyrosinase; test: mushroom tyrosinase activity assay (L-DOPA substrate); type: biochemical; conditions: mean ± SEM
Procedure: The procedure for the mushroom tyrosinase activity assay was conducted in accordance with the methodology described in a previous report. […] In a 96-well plate, 40 μL of mushroom tyrosinase (5 U/μL, Sigma Aldrich, St. Louis, MO, USA) was added to each well, followed by 50 μL of the test compound at various concentrations. After that, 10 μL of 50 mM L-DOPA (purity ≥98%, Sigma-Aldrich, St. Louis, MO, USA) were added and incubated in darkness at 37 °C for 15 min. Finally, the absorbance was measured at 450 nm. The experiment was conducted in triplicate. IC50 values were determined using GraphPad Prism 10.2.2 software.

[3] = copper-chelating activity assay (pyrocatechol violet); conditions: 5 mM
Procedure: The copper-chelating activity of compound 4 was assessed using previously reported protocol[44] with minor modifications. […] After that, the absorbance of each well was measured at 620 nm. The copper-chelating activity was calculated using the formula: Copper-chelating activity (%) = [(Acon – Asam)/Acon] × 100, where Acon and Asam are the absorbance of the control and test sample, respectively.

[4] = cytotoxicity MTT assay; type: cell-based, murine; conditions: mouse, B16F10 melanoma cells, read-out: cell viability
Procedure: Cell viability was determined using the MTT assay (3-(4,5-dimethylthiazol-2-yl)-2,5-diphenyltetrazolium bromide). B16F10 (murine melanoma cell line) was purchased from American Type Culture Collection (ATCC, Manassas, VA, USA). B16F10 cells were seeded into 96-well plates at a density of 1500 cells per well. After overnight incubation, the cells were treated with different concentrations of the test compound for 48 h. Following this, MTT reagent was added to each well and incubated for 3 h. The culture medium was then removed, and 100 μL of DMSO was used to dissolve the formazan crystals. Absorbance was measured at 540 nm to evaluate cell viability.

[5] = test system: B16F10 murine melanoma cells; test: melanin assay in α-MSH-stimulated cells; type: cell-based
Procedure: Melanin production was assessed according to the methodology outlined in a previous study. B16F10 cells were cultured in 6-well plates at a density of 100,000 cells per well. After overnight incubation, the cells were treated with different concentrations of the test compound for 48 h. Note that 1 μM of α-melanocyte-stimulating hormone (α-MSH) (Sigma Aldrich, St. Louis, MO, USA) was used to induce melanin synthesis. Following treatment, the cells were washed twice with PBS, detached using trypsin/EDTA, and centrifuged at 3,000×g for 5 min. The resulting cell pellets, containing approximately 700,000 cells, were solubilised in 2 M NaOH and heated at 100 °C for 30 min. Melanin content was quantified by measuring absorbance at 405 nm.

[6] = target: tyrosinase; conditions: cited from earlier work

S=C1NCCCc2occc21 [Compound T4FAT, 5,6,7,8-tetrahydro-4H-furo[3,2-c]azepine-4-thione]
copper ions chelated ([1]; 200 mM ref 63): more than 80%

S=C(NCc1ccc(CNC(=S)Nc2ccc(Cl)cc2)cc1)Nc1ccc(Cl)cc1 [Compound 4]
IC50 [2]: 61.6 ± 7.82 µM
Copper-chelating activity [3]: 64%
viability at 48 h, 1 µM ([4]; 1 μM): ~90%
viability at 48 h, 3 µM ([4]; 3 μM): ~90%
viability at 48 h, 10 µM ([4]; 10 μM): ~75%
viability at 48 h, 30 µM ([4]; 30 μM): ~50%
viability at 48 h, 100 µM ([4]; 100 μM): < 40%
melanin production ([5]; 10 and 30 μM, 48 h, α-MSH (1 μM)-treated B16F10, vs α-MSH group): significantly inhibited melanin production
anti-melanogenic activity compared to KA ([5]; α-MSH-stimulated B16F10, approximately): 30–100 times

O=C(O)CN(CCN(CC(=O)O)CC(=O)O)CC(=O)O [EDTA, ethylenediaminetetraacetic acid]
Copper-chelating activity [3]: 95%

N=C(N)NN=C1C=CC(=NNC(N)=S)C=C1 [ambazone]
IC50 [6]: 15 µM

O=c1cc(CO)occ1O [KA, kojic acid]
Copper-chelating activity [3]: 75%
melanin content ([5]; 1000 μM, 48 h, α-MSH-stimulated B16F10, vs α-MSH group): reduced melanin content significantly

C[C@@H]1[C@H](O)[C@@H](C)/C=C/C=C/C=C/C=C/C=C/C=C/C=C/[C@H](O[C@@H]2O[C@H](C)[C@@H](O)[C@H](N)[C@@H]2O)C[C@@H]2O[C@](O)(C[C@@H](O)C[C@@H](O)[C@H](O)CC[C@@H](O)C[C@@H](O)CC(=O)O[C@H]1C)C[C@H](O)[C@H]2C(=O)O [amphotericin B]
IC50 [6]: 263 ± 11.8 µM

CC(=O)Nc1ccc(/C=N/NC(N)=S)cc1 [thioacetazone]
IC50 [6]: 14 µM

Sc1nc2ccccc2s1 [Compound 2-TBT, 2-thiobenzothiazole]
Copper-chelating activity [1]: 48% to 69

CC1(C)C=Cc2c(O)ccc(C3=Cc4ccc(O)cc4OC3)c2O1 [glabrene]
IC50 [6]: 7600 µM
